Data as given in PMC10257291, “Biological activities of extracts and compounds from Thai Kae-Lae (Maclura cochinchinensis (Lour.) Corner)” (BMC Complementary Medicine and Therapies, 2023).
“Also recorded” adds a separate entry of the source.

Experiments:
ABTS assay = conditions: compared in words
Description: Briefly, the sample (20 μL) was mixed with of the ABTS^•^+ solution (180 μL) that had been prepared overnight. The combined mixture was incubated at room temperature (25 °C) for 5 min before assessing the UV absorbance at 750 nm with a microplate reader (Spectrostar Nano, BMG Labtech GmbH, Ortenberg, Germany). The findings were described as Trolox equivalent antioxidant capacity (TEAC). All experiments were conducted in triplicate.

FRAP assay = conditions: compared in words
Description: Briefly, sample (20 μL) was mixed with FRAP solution (180 μL). The combined mixture was incubated at room temperature (25 °C) in the dark for 5 min before assessing the UV absorbance was measured at 595 nm with a microplate reader (Beckman CoulterDTX880, Fullerton, CA, USA). The findings were described as equivalent concentration (EC1). L-ascorbic acid served as a positive control. All experiments were conducted in triplicate.

DPPH assay = conditions: compared in words
Description: The DPPH^• scavenging activity of crude fractional extracts and their biological active compounds were investigated using DPPH assay. Briefly, the sample (20 μL) was mixed with 167 μM DPPH solution (180 μL). The combined mixture was incubated at room temperature (25 °C) in the dark for 30 min before assessing the UV absorbance at 520 nm with a microplate reader (Beckman CoulterDTX880, Fullerton, CA, USA). The DPPH^• scavenging activity was presented in terms of the percentage of inhibition that was calculated using the following equation: 2 %DPPH^·inhibition=A-B/A×100 A is the UV absorbance of the mixture in the absence of a sample solution, and B is the UV absorbance of the mixture in the […] of a sample solution. L-ascorbic acid served as a positive control. All experiments were conducted in triplicate.

WT1 protein [1] = experiment: WT1 protein expression by Western blot in KG-1a cells; assay type: cell-based, human; conditions: IC20 value, 48 h, vs vehicle control
Description: (§1) Leukaemic stem cells (KG-1a) and leukaemic cells (EoL-1 and K562) were used as cell models which overexpressed WT1 protein expression. Cells were treated with crude fractional extracts and active compounds at a 20% growth inhibition (IC20 value) of each extract. Following 48-h of incubation, cells were washed. The whole protein was extracted using RIPA buffer. The protein concentration was determined by the Pierce™ BCA Protein Assay Kit (ThermoFisher Scientific, IL, USA). Extracted protein sample at 30 − 50 μg was loaded to 12% SDS-PAGE and then transferred to PVDF membranes. The method was done as previously described. The specific protein bands were determined by Luminata™ Forte Western HRP substrate (Merck, Darmstadt, Germany) and exposed to X-ray film (Sakura, Japan). Quantity One 1-D Analysis software (Bio-Rad, USA) was used to quantify densitometry. The density values of WT1 bands were normalized to GAPDH bands.

MCF-7 cells = experiment: Cell migration assay (wound healing scratch); assay type: cell-based, human; conditions: non-toxic dose, after 24 h of wounding
Description: Inhibitory effect of the extracts on cell migration of MCF-7 cells was assessed by wound healing scratch assays. First, cells were plated into 24-well plates and incubated in a CO2 incubator with humidified atmosphere of 5% CO2. After reaching the confluent monolayer forms, a longitudinal wound was created by scratching using SPLTM Scar Scratcher. Then, the non-toxic dose of each extract in complete DMEM medium was added into each well and cell migration was monitored and observed under Leica DM IL LED inverted microscopy and the images of cell-free area were captured at 0, 6, 12, and 24 h after wounding, then measured using ImageJ software. The percentage of wound width was calculated by the following formula:6 Woundwidth(%)=(Cell-[…] Where “Cell-free […]” is the cell-free area at any time point of imaging while “Cell-free area0.h” is the cell-free area at the beginning of wounding.

TNF-α = TNF-α secretion in LPS-stimulated RAW 264.7 cells (ELISA); assay type: cell-based, mouse; conditions: sample at IC20 value; vs dexamethasone 1 μg/mL; LPS 1 μg/mL
From the text: Mouse monocyte macrophage RAW 264.7 cells (American Type Culture Collection, […]-71) were stimulated with lipopolysaccharide (LPS) or phytohemagglutinin (PHA). The LPS treated RAW 264.7 cells served as a vehicle control, of which the NO production, and the secreted cytokines were defined as 100%, whereas a negative control was non-treated RAW 264.7 cells. Dexamethasone (an anti-inflammatory drug) was used as a positive control. PBMCs (1 × 10^5 cells/well in RPMI-1640 for IL-2) and Raw cells (1 × 10^5 cells/well in DMEM for TNF-α) were seeded for 24 h in a CO2 incubator set at 37 °C and 5% CO2/95% humidified air. Then cells were treated with […] fractional extracts (IC20 value) or pure compounds (IC20 value), or dexamethasone (1 μg/mL) were added. […] After 24 h, the media were removed and centrifuged at 13,500 × g for 10 min and 100 μL of the supernatant was analysed by the protocol of R&D Systems, Minneapolis, MN, USA using ELISA technique. The absorbance was measured at 450 nm and corrected with the reference wavelength of 570 nm (Beckman CoulterDTX880, Fullerton, CA, USA). Viability of PBMCs and RAW 264.7 cells was also determined using MTT assay as described previously. IL-2 and TNF-α secretion inhibitions were calculated as bellow:4 %Cytokineinhibition=A-B/A×100 A is the optical density of the mixture without the sample, while B is the optical density of the mixture with the sample. […]

NO = experiment: Nitric oxide measurement in LPS-stimulated RAW 264.7 cells; assay type: cell-based, mouse; conditions: sample at IC20 value; vs dexamethasone; LPS 1 μg/mL
Description: Mouse monocyte macrophage RAW 264.7 cells (American Type Culture Collection, ATCCTIB-71) were stimulated with lipopolysaccharide (LPS) or phytohemagglutinin (PHA). The LPS treated RAW 264.7 cells served as a vehicle control, of which the NO production, and the secreted cytokines were defined as 100%, whereas a negative control was non-treated RAW 264.7 cells. Dexamethasone (an anti-inflammatory drug) was used as a positive control.
Briefly, 1 × 10^5 cells/well in DMEM were seeded and incubated for 24 h in a CO2 incubator set at 37 °C and 5% CO2/95% humidified air. Then cells were treated with Kae-Lae extracts or purified compounds. Following 2-h of incubation in a CO2 incubator, LPS was added to make a final concentration of 1 μg/mL. After 24 h in a CO2 incubator, the media were removed and centrifuged at 13,500 × g for 10 min. The supernatant was analysed for the level of NO using Total Nitric Oxide Assay kit, according to the manufacturer’s protocol (Invitrogen™, ThermoFisher Scientific, MA, USA). The optical density was measured at 540 nm using a multimode detector (Beckman CoulterDTX880, Fullerton, CA, USA).
NO inhibitions were calculated using the following equation:
3 %NOinhibition=A-B/A×100
A is the optical density of the mixture without the sample, while B is the optical density of the mixture with the sample. Dexamethasone was used as a positive control. […]

WT1 protein [2] = experiment: WT1 protein expression by Western blot in EoL-1 cells; assay type: cell-based, human; conditions: IC20 value, 48 h, vs vehicle control
Description: as §1

KG-1a cells = experiment: Total cell number by trypan blue exclusion, KG-1a cells; assay type: cell-based, human; conditions: IC20 value, 48 h, vs vehicle control
Description: According to the principle of trypan blue exclusion, viable cells with intact membranes can exclude trypan blue dye, while dead cells with compromised membranes are stained by the trypan blue dye solution. A cell suspension and trypan blue dye solution (0.2%) were mixed, and viable and dead cells were counted under microscope using a hemacytometer. Then, the percentage of viable cells was calculated. KG-1a, EoL-1 and K562 cells were cultured with crude fractional extracts and active pure compounds at various concentrations (10 − 20% growth inhibition; IC10 − IC20 values) of each extract for 48 h, at a 20% growth inhibition (IC20 value) of each extract for 24 and 48 h. Following incubation, cells were harvested, and the total cell number was counted using trypan blue exclusion method. Three independent experiments were plotted as a dose–response curve and compared with the vehicle control. Meanwhile, the total cell number of each cell line after fractional extract and pure compound treatments at 24 and 48 h were calculated and plotted as a time-response curve. Slopes from each graph were considered as the rate of cell proliferation.

| Compound | TEAC (ABTS antioxidant activity) (ABTS assay) | EC1 (FRAP antioxidant activity) (FRAP assay) | DPPH• inhibition (DPPH assay) | suppression of WT1 protein expression in KG-1a cells (WT1 protein [1]) | wound width (MCF-7 cells) | TNF-α inhibition (TNF-α) | NO inhibition (NO) | suppression of WT1 protein expression in EoL-1 cells (WT1 protein [2]) | suppression of WT1 protein expression in EoL-1 cells (WT1 protein [2]; listed as resveratrol) | suppression of WT1 protein expression in KG-1a cells (WT1 protein [1]; listed as resveratrol) | decrease of total cell number, KG-1a cells (KG-1a cells) |
| --- | --- | --- | --- | --- | --- | --- | --- | --- | --- | --- | --- |
| O=c1c(O)c(-c2ccc(O)cc2O)oc2cc(O)cc(O)c12 [Morin, 2’,3,4’,5,7-pentahydroxyflavonone] | comparable TEAC and EC1 values with those of ascorbic acid | comparable TEAC and EC1 values with those of ascorbic acid | significantly more potent than ascorbic acid | 32.89 ± 8.76% | 60.5 ± 3.8% | – | – | – | – | – | – |
| O=c1c(O)c(-c2ccc(O)c(O)c2)oc2cc(O)cc(O)c12 [Quercetin, quercetin] | comparable TEAC and EC1 values with those of ascorbic acid | comparable TEAC and EC1 values with those of ascorbic acid | significantly more potent than ascorbic acid | – | – | significantly more potent inhibition of IL-2, TNF-α, and NO than dexamethasone | potent inhibitory activities against NO; also recorded: significantly more potent inhibition of IL-2, TNF-α, and NO than dexamethasone | – | – | – | – |
| Oc1ccc(/C=C/c2cc(O)cc(O)c2)cc1 [Resveratrol, resveratrol] | – | – | – | – | 32.8 ± 0.7% | – | – | 76.73% | 76.73 ± 4.08% | 60.27 ± 11.44% | 39.23% |
